From patent US9427437B2, “Hypercholesterolemia and tendinous injuries” (The Trustees of the University of Pennsylvania, priority 2008, dated 2016) come the findings set out here.

Test [1] deals with partial tear of the patellar tendon. Description: Patient case: oral atorvastatin for a partial tear of the patellar tendon in a hypercholesterolemic patient. The class given is in vivo, human. To be noted: orally 20 mg once daily. The procedure:
A person presents with a partial tear of the patellar tendon. Their orthopedist orders a standard lipid panel as part of their blood work. The orthopedist finds that the patient is hypercholesterolemic with a total cholesterol of almost 300 mg/DL. The orthopedist prescribes atorvastatin to be taken orally at a dose of 20 mg once daily.

The subject of test [2] is partial rupture of achilles tendon. In words: Patient case: oral rosuvastatin for a partial rupture of the achilles tendon in a hypercholesterolemic patient. Type of test: in vivo, human. To be noted: orally 10 mg once daily. How it is done:
A diabetic presents with a partial rupture of their achilles tendon. Their orthopedist orders a standard lipid panel as part of their blood work. The orthopedist finds that the patient is hypercholesterolemic with a total cholesterol of 285 mg/DL. The orthopedist prescribes rosuvastatin to be taken orally at a dose of 10 mg once daily.

In the case of `CC(C)c1c(C(=O)Nc2ccccc2)c(-c2ccccc2)c(-c2ccc(F)cc2)n1CC[C@@H](O)C[C@@H](O)CC(=O)O` [atorvastatin], the “recovery from partial tear of the patellar tendon” value in test [1] (hypercholesterolemic person) is reported as “markedly improved”. Besides, the cholesterol lowering result in test [1] (person, total cholesterol almost 300 mg/DL at presentation) was “lowering their cholesterol to acceptable levels”.

On to `CC(C)c1nc(N(C)S(C)(=O)=O)nc(-c2ccc(F)cc2)c1/C=C/[C@@H](O)C[C@@H](O)CC(=O)O` [rosuvastatin], for which, in test [2] (diabetic, total cholesterol 285 mg/DL at presentation), the cholesterol lowering entry was “lowering their cholesterol to acceptable levels”. Further, the “recovery from partial rupture of achilles tendon” value in test [2] (hypercholesterolemic diabetic) was “markedly improved”.
